Data taken from PMC7052517 (iScience, 2020).
Like-named read-outs stand apart in the source and are kept apart here.

Assays:
[1] = biological target: T1, α-Synuclein (Homo sapiens, UniProt P37840); assay: isothermal titration calorimetry; type: binding
[2] = biological target: T1, α-Synuclein; assay: isothermal titration calorimetry; type: binding; remark: listed apart in the source

Compound | Kd [1] | Kd [2]
CC1=C(/C=C/C(C)=C/C=C/C(C)=C/C(=O)O)C(C)(C)CCC1 [RA, retinoic acid] | 0.5 µM | 
CCCCCCCC/C=C\CCCCCCCC(=O)O [OA, oleic acid] |  | 179 µM
CC/C=C\C/C=C\C/C=C\CCCCCCCC(=O)O [ALA, α-linolenic acid] |  | 221 µM
